Assay results published in patent US11136625B2, “Gene expression signatures predictive of subject response to a multi-kinase inhibitor and methods of using the same” (Crown Bioscience, Inc. (Taicang), priority 2013, dated 2021).

Columns and labels:
[1] = tested on: HCC-PDX model LIM1025 (code 002); experiment: Sorafenib antitumor activity in HCC HuPrime PDX model LIM1025; type: in vivo, Balb/c nude mice; conditions: 50 mg/kg p.o. qd × 14, P value <0.001
Source text: (§1) Patient tumor samples and engraftment in immunocompromised mice. […] (<10).
(§2) Evaluation of antitumor activity.

[2] = tested on: HCC-PDX model LIM752 (code 003); experiment: Sorafenib antitumor activity in HCC HuPrime PDX model LIM752; type: in vivo, Balb/c nude mice; conditions: 50 mg/kg p.o. qd × 14, P value <0.001
Source text: as §1, §2

[3] = tested on: HCC-PDX model LIM1081 (code 004); experiment: Sorafenib antitumor activity in HCC HuPrime PDX model LIM1081; type: in vivo, Balb/c nude mice; conditions: 50 mg/kg p.o. qd × 13, P value 0.015
Source text: as §1, §2

[4] = tested on: HCC-PDX model LIM1098 (code 005); experiment: Sorafenib antitumor activity in HCC HuPrime PDX model LIM1098; type: in vivo, Balb/c nude mice; conditions: 50 mg/kg qd × 14 p.o., P value 0.008
Source text: as §1, §2

[5] = tested on: HCC-PDX model LIM612 (code 006); experiment: Sorafenib antitumor activity in HCC HuPrime PDX model LIM612; type: in vivo, Balb/c nude mice; conditions: 50 mg/kg p.o. Qd × 22, P value 0.001
Source text: as §1, §2

[6] = tested on: HCC-PDX model LIM1035 (code 007); experiment: Sorafenib antitumor activity in HCC HuPrime PDX model LIM1035; type: in vivo, Balb/c nude mice; conditions: 50 mg/kg p.o. qd × 14, P value 0.005
Source text: as §1, §2

[7] = tested on: HCC-PDX model LIM1005 (code 008); experiment: Sorafenib antitumor activity in HCC HuPrime PDX model LIM1005; type: in vivo, Balb/c nude mice; conditions: 50 mg/kg p.o. qd × 14, P value 0.015
Source text: as §1, §2

[8] = tested on: HCC-PDX model LIM574 (code 009); experiment: Sorafenib antitumor activity in HCC HuPrime PDX model LIM574; type: in vivo, Balb/c nude mice; conditions: 50 mg/kg p.o. qd × 14, P value 0.002
Source text: as §1, §2

[9] = tested on: HCC-PDX model LIM941 (code 010); experiment: Sorafenib antitumor activity in HCC HuPrime PDX model LIM941; type: in vivo, Balb/c nude mice; conditions: 50 mg/kg p.o. 5 days on/2 days off, P value <0.001
Source text: as §1, §2

[10] = tested on: HCC-PDX model LIM1074 (code 011); experiment: Sorafenib antitumor activity in HCC HuPrime PDX model LIM1074; type: in vivo, Balb/c nude mice; conditions: 50 mg/kg p.o. qd × 13, P value 0.032
Source text: as §1, §2

[11] = tested on: HCC-PDX model LIM801 (code 012); conditions: 50 mg/kg p.o. 5 days on/2 days off, P value 0.001
Source text: (§3) We were interested in identifying models that would respond or not respond to Sorafenib. To this end, we tested a cohort of randomly selected 21 HCC HuPrime by treating them with Sorafenib.
(§4) Patient tumor samples and engraftment in immunocompromised mice. Freshly and surgically removed tumor tissues were obtained from the patients diagnosed as HCC through collaboration with the Beijing Keluoen Translational Medicine Institute and Hebei Medical University Fourth Hospital with approval by the Institutional Review Boards of Hebei Medical University Fourth Hospital and the informed consents from patients. The engraftments of patient tumor fragments into immunocompromised mice subcutaneously have been broadly described by others. Briefly, the tumors were sliced into 3×3×3 mm3 fragments and inoculated subcutaneously on the flank of mice (Balb/c nude, 6-8 wks old, female, Beijing HFK Bioscience Co. Ltd., Beijing, China). The tumor growth was monitored twice weekly by using a caliper. The established tumor models from these patient samples, called passage 0 or P0, were serially re-engrafted to maintain tumors, these subsequent passages were called P1, 2, 3 . . . (<10). […]

[12] = tested on: HCC-PDX model LIM1054 (code 013); experiment: Sorafenib antitumor activity in HCC HuPrime PDX model LIM1054; type: in vivo, Balb/c nude mice; conditions: 50 mg/kg p.o. qd × 14, P value 0.045
Source text: as §1, §2

[13] = tested on: HCC-PDX model LIM1097 (code 014); experiment: Sorafenib antitumor activity in HCC HuPrime PDX model LIM1097; type: in vivo, Balb/c nude mice; conditions: 50 mg/kg p.o. qd × 14, P value 0.046
Source text: as §1, §2

[14] = tested on: HCC-PDX model LIM1057 (code 015); experiment: Sorafenib antitumor activity in HCC HuPrime PDX model LIM1057; type: in vivo, Balb/c nude mice; conditions: p.o. 50 mg/kg, qd × 14, P value 0.003
Source text: as §1, §2

[15] = tested on: HCC-PDX model LIM1068 (code 016); experiment: Sorafenib antitumor activity in HCC HuPrime PDX model LIM1068; type: in vivo, Balb/c nude mice; conditions: 50 mg/kg p.o. qd × 13, P value 0.024
Source text: as §1, §2

[16] = tested on: HCC-PDX model LIF1069 (code 017); experiment: Sorafenib antitumor activity in HCC HuPrime PDX model LIF1069; type: in vivo, Balb/c nude mice; conditions: 50 mg/kg p.o. qd × 14, P value 0.024
Source text: as §1, §2

[17] = tested on: HCC-PDX model LIM1078 (code 018); experiment: Sorafenib antitumor activity in HCC HuPrime PDX model LIM1078; type: in vivo, Balb/c nude mice; conditions: 50 mg/kg p.o. qd × 13, P value 0.055
Source text: as §1, §2

[18] = tested on: HCC-PDX model LIM1088 (code 019); experiment: Sorafenib antitumor activity in HCC HuPrime PDX model LIM1088; type: in vivo, Balb/c nude mice; conditions: 50 mg/kg p.o. qd × 13, P value 0.182
Source text: as §1, §2

[19] = tested on: HCC-PDX model LIMsh050 (code 020); experiment: Sorafenib antitumor activity in HCC HuPrime PDX model LIMsh050; type: in vivo, Balb/c nude mice
Source text: as §3, §4

[20] = tested on: HCC-PDX model LIM334 (code 021); experiment: Sorafenib antitumor activity in HCC HuPrime PDX model LIM334; type: in vivo, Balb/c nude mice
Source text: as §1, §2

[21] = tested on: cohort of 21 hepatocellular carcinoma (HCC) patient derived xenografts (PDXs); experiment: Clinical trial-like study of Sorafenib in a cohort of 21 HCC HuPrime PDXs; type: in vivo, Balb/c nude mice; conditions: 13 out of 21 PDXs; daily oral Sorafenib 50 mg/kg
Source text: as §1, §2
Patient derived xenografts (PDXs) are considered experimental models mimicking patient tumors, or “patient avatars”. We performed a clinical-like trial (phase II-like) using a cohort of 21 hepatocellular carcinoma (HCC) patient derived xenografts (PDXs), also called patient avatar trial, for testing their response to multi-kinase inhibitor Sorafenib. […] Gene expression profiles of these PDXs were analyzed to reveal the mRNA expression signatures that may be predictive of the response to Sorafenib. This signature can be potentially used to develop companion diagnostics to stratify patent treatment, or individualized treatment.

[22] = tested on: advanced hepatocellular carcinoma (HCC); conditions: background statement; cited from earlier work

**Q.** With CNC(=O)c1cc(Oc2ccc(NC(=O)Nc3ccc(Cl)c(C(F)(F)F)c3)cc2)ccn1 [Sorafenib] as the compound, how does the “ΔT/ΔC (day14-day15)” value [1] read?
**A.** 0.01

**Q.** And the “ΔT/ΔC (day14-day15)” value [2]?
**A.** 0.10

**Q.** And the “ΔT/ΔC (day14-day15)” value [3]?
**A.** 0.14

**Q.** And the “ΔT/ΔC (day14-day15)” value [4]?
**A.** 0.14

**Q.** What about the “ΔT/ΔC (day14-day15)” value [5] of the same compound?
**A.** 0.15

**Q.** What about the “ΔT/ΔC (day14-day15)” value [6] of the same compound?
**A.** 0.16

**Q.** What about the “ΔT/ΔC (day14-day15)” value [7] of the same compound?
**A.** 0.21

**Q.** What about the “ΔT/ΔC (day14-day15)” value [8] of the same compound?
**A.** 0.21

**Q.** And the “ΔT/ΔC (day14-day15)” value [9]?
**A.** 0.23

**Q.** What about the “ΔT/ΔC (day14-day15)” value [10] of the same compound?
**A.** 0.35

**Q.** What about the “ΔT/ΔC (day14-day15)” value [11] of the same compound?
**A.** 0.37

**Q.** What about the “ΔT/ΔC (day14-day15)” value [12] of the same compound?
**A.** 0.38

**Q.** What about the “ΔT/ΔC (day14-day15)” value [13] of the same compound?
**A.** 0.41

**Q.** And the “ΔT/ΔC (day14-day15)” value [14]?
**A.** 0.43

**Q.** And the “ΔT/ΔC (day14-day15)” value [15]?
**A.** 0.47

**Q.** What about the “ΔT/ΔC (day14-day15)” value [16] of the same compound?
**A.** 0.47

**Q.** And the “ΔT/ΔC (day14-day15)” value [17]?
**A.** 0.48

**Q.** And the “ΔT/ΔC (day14-day15)” value [18]?
**A.** 0.54

**Q.** What about the “model response to Sorafenib (in words)” value ([19]; model L10050, daily oral 50 mg/kg) of the same compound?
**A.** quite or partially resistant

**Q.** And the “ΔT/ΔC (day14-day15)” value ([19]; model LIMsh050, 50 mg/kg p.o. qd × 14, P value 0.134)?
**A.** 0.78

**Q.** What about the “model response to Sorafenib (in words)” value ([20]; model L10334, daily oral 50 mg/kg) of the same compound?
**A.** quite or partially resistant

**Q.** What about the “ΔT/ΔC (day14-day15)” value ([20]; model LIM334, 50 mg/kg p.o. 5 days on/2 days off, P value 0.659) of the same compound?
**A.** 1.13

**Q.** And the “PDXs that achieved effective tumor growth inhibition with % ΔT/ΔC<40% (p<0.05)” value [21]?
**A.** 62%

**Q.** What about the “increase survival for HCC patients” value [22] of the same compound?
**A.** 3 months
